According to US20140249135A1, “PIM KINASE INHIBITORS AND METHODS OF THEIR USE” (NOVARTIS AG, priority 2007, published 2014):
Like-named read-outs stand apart in the source and are kept apart here.

Assays:
Pim1 kinase = Pim1 kinase (Homo sapiens, UniProt P11309); test: Pim1 ATP depletion assay; assay type: biochemical;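 also: Luciferase-luciferin luminescence readout of residual ATP after PIM1 transfers phosphate to a peptide substrate, 40 µM ATP added, reaction run to roughly half ATP consumption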
Chain of Pim1 kinase (P11309 whole entry): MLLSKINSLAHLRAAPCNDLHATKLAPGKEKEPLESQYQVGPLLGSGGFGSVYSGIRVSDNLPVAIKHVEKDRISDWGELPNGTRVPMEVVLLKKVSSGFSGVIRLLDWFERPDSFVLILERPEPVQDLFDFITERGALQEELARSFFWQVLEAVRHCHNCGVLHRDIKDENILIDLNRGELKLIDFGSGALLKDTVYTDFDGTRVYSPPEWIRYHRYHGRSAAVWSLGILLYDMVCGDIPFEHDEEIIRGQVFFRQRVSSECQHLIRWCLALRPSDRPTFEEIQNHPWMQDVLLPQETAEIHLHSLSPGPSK

Pim2 kinase = Pim2 kinase (Homo sapiens, UniProt Q9P1W9); test: Pim2 ATP depletion assay; assay type: biochemical;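 also: Luciferase-based luminescent readout of ATP remaining after PIM2 phosphorylates a BAD peptide, final 5 nM enzyme, 4 µM ATP, 10 µM peptide, 2.5% DMSO, run to roughly half ATP consumption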
Chain of Pim2 kinase (Q9P1W9 whole entry): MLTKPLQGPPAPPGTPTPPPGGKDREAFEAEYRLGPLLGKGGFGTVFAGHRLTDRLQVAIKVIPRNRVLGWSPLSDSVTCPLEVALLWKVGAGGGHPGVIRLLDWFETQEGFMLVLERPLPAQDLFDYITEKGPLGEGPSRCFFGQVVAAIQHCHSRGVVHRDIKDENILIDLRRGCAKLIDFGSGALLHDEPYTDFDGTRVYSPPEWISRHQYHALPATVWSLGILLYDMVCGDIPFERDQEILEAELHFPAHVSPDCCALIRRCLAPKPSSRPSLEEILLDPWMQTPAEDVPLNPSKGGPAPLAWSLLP

Pim3 kinase = Pim3 kinase (Homo sapiens, UniProt Q86V86); test: Pim3 ATP depletion assay; assay type: biochemical
HEL 92.1.7 cells = test: Cell proliferation assay (CellTiter-Glo), HEL 92.1.7; assay type: cell-based; details: Homo sapiens
In short: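 CellTiter-Glo luminescence was read after 3-day compound exposure at 37 °C of cells plated at 1000/well in RPMI1640 with 10% FBS. Signal was normalised between DMSO-treated and control-compound-treated wells. EC50 is the concentration giving 50% of maximal effect.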

[1] = molecular target: T1, human full length PKCE enzyme (Homo sapiens, UniProt Q02156); test: In vitro PKCE assay; assay type: biochemical; details: 10 nM enzyme, 40 uM peptide substrate, 20 uM ATP, KinaseGlo Plus readout; read-out: PKCε IC50
T1 construct: human full length PKCE enzyme purchased from InVitrogen; purchased InVitrogen
T1 sequence (Q02156 1-737): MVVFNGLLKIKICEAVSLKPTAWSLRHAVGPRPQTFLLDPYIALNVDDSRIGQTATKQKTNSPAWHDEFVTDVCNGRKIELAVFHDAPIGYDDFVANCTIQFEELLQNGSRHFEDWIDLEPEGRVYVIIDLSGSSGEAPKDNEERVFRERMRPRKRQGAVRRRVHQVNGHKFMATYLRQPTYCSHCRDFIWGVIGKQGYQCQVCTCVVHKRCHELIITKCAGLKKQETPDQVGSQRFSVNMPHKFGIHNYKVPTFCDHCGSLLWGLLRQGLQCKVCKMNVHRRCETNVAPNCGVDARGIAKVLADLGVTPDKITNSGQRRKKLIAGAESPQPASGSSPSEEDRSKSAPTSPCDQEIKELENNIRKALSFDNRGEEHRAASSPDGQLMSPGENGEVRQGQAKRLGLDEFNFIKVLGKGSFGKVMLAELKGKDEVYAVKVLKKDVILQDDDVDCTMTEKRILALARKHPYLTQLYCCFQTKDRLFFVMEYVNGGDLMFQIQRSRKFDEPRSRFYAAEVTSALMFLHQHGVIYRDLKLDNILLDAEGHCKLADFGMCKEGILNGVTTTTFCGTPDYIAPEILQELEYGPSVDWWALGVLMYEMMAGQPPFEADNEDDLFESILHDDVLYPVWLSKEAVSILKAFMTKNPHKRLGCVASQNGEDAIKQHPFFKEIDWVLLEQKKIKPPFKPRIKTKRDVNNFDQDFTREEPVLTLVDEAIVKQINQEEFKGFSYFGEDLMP

KDR kinase = KDR kinase (Homo sapiens, UniProt P35968); test: KDR AlphaScreen assay; details: KDR IC50 (μM)
Chain of KDR kinase (P35968 20-1356): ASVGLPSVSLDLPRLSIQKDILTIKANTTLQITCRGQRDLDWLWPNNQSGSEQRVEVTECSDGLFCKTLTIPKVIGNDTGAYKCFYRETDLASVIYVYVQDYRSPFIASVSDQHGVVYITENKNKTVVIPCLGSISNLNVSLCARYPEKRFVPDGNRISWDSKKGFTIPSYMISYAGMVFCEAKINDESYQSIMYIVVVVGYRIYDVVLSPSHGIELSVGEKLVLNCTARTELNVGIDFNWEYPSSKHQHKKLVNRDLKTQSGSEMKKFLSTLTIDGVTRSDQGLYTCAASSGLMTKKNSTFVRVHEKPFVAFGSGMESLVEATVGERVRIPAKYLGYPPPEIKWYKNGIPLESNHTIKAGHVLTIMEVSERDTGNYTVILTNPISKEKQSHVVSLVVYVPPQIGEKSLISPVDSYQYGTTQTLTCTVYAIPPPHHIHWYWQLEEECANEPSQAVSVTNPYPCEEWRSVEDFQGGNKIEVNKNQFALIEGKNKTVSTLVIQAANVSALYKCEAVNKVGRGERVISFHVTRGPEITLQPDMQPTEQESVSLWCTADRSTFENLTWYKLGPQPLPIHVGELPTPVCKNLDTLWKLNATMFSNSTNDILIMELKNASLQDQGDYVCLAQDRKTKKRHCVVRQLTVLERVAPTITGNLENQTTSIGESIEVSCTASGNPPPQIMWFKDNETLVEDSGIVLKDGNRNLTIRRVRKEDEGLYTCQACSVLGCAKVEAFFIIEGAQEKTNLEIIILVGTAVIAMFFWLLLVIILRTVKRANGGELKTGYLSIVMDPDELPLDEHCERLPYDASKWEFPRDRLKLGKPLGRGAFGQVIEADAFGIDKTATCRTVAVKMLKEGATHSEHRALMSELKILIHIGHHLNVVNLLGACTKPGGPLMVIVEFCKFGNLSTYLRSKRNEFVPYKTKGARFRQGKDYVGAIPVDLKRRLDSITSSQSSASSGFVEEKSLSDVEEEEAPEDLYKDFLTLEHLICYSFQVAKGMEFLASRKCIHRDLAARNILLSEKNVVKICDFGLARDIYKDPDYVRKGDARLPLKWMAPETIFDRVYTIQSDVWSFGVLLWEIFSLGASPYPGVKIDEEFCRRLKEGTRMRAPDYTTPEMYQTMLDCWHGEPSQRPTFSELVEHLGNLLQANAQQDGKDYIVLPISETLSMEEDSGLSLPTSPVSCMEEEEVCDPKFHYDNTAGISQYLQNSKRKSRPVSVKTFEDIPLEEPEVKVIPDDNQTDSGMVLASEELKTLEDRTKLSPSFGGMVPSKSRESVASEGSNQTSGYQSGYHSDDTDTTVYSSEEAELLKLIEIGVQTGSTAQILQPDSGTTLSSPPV

[2] = Pim1 ATP depletion assay, read-out: IC50 (μM) PIM1

SMILES | IC50 (Pim1 kinase; [2]) | IC50 (Pim2 kinase; read-out: IC50 (μM) PIM2) | IC50 (Pim3 kinase; read-out: IC50 (μM) PIM3) | IC50 [1] | IC50 (KDR kinase) | IC50 (Pim1 kinase; Pim1 ATP depletion assay, read-out: PIM1 IC50) | IC50 (Pim2 kinase; read-out: PIM2 IC50) | IC50 (Pim3 kinase; read-out: PIM3 IC50) | EC50 (HEL 92.1.7 cells; read-out: EC50 (μM) HEL 92.1.7) | EC50 (HEL 92.1.7 cells; read-out: HEL 92.1.7 EC50) | IC50 (Pim1 kinase)
COc1ccccc1-c1nc(C(=O)Nc2cnccc2N2CCCC(N)C2)c(N)nc1N (stereo not drawn) [Example 344, 3,5-diamino-6-(2-methoxy-phenyl)-pyrazine-2-carboxylic acid (3-amino-3,4,5,6-tetra-hydro-2H-[1,4′]bipyridinyl-3′-yl)-amide] | < 1 µM | < 1 µM | < 1 µM | 10000 to 25000 nM | > 25 µM |  |  |  | > 10 µM |  | 
Nc1nc(N)c(C(=O)Nc2[nH]c(=O)ncc2N2CCC(C(F)(F)F)CC2)nc1Cl [Example 159, 3,5-diamino-6-chloro-N-{2-oxo-5-[4-(trifluoromethyl)piperidin-1-yl]-2,3-dihydropyrimidin-4-yl}pyrazine-2-carboxamide] | < 1 µM | < 1 µM | < 1 µM | > 25000 nM | < 1 µM |  |  |  | 5 to 10 µM |  | 
Nc1ccc(-c2ccc(F)cc2F)nc1C(=O)Nc1cnccc1N1CCC[C@H](N)C1 [Example 431, 3-amino-6-(2,4-difluoro-phenyl)-pyridine-2-carboxylic acid ((S)-3-amino-3,4,5,6-tetrahydro-2H-[1,4′]bipyridinyl-3′-yl)-amide] | < 1 µM | < 1 µM | < 1 µM | 1000 to 10000 nM | > 25 µM |  |  |  | 1 to 5 µM |  | 
Nc1cccnc1C(=O)Nc1cnccc1N1CCC[C@H](N)C1 [Example 175, 3-amino-N-{4-[(3S)-3-amino-piperidin-1-yl]pyridin-3-yl}-pyridine-2-carboxamide] |  | < 1 µM | < 1 µM | 1000 to 10000 nM | > 25 µM |  |  |  | > 10 µM |  | < 1 µM
Cc1ccc(F)c(-c2ccc(N)c(C(=O)Nc3cnccc3N3CCC[C@H](N)C3)n2)c1 [Example 333, 3-amino-6-(2-fluoro-5-methyl-phenyl)-pyridine-2-carboxylic acid ((S)-3-amino-3,4,5,6-tetrahydro-2H-[1,4′]bi-pyridinyl-3′-yl)-amide] | < 1 µM | < 1 µM | < 1 µM | 10000 to 25000 nM | > 25 µM |  |  |  | 1 to 5 µM |  | 
Nc1nc(N)c(-c2ccccc2Cl)nc1C(=O)Nc1cnccc1N1CCCC(N)C1 (stereo not drawn) [Example 342, 3,5-diamino-6-(2-chloro-phenyl)-pyrazine-2-carboxylic acid (3-amino-3,4,5,6-tetra-hydro-2H-[1,4′]bipyridinyl-3′-yl)-amide] | < 1 µM | < 1 µM | < 1 µM | 1000 to 10000 nM | 1 to 10 µM |  |  |  | < 1 µM |  | 
NCCC(=O)N1CCN(c2ccncc2NC(=O)c2nc(Cl)c(N)nc2N)CC1 [Example 185, 3,5-Diamino-6-chloro-pyrazine-2-carboxylic acid {4-[4-(3-amino-propionyl)-piperazin-1-yl]-pyridin-3-yl}-amide] | < 1 µM | < 1 µM | < 1 µM | 1000 to 10000 nM | 1 to 10 µM |  |  |  | < 1 µM |  | 
Nc1nc(N)c(C(=O)Nc2cnccc2N2CCCC(N)C2)nc1Cl (stereo not drawn) [Example 183, 3,5-diamino-N-[4-(3-amino-piperidin-1-yl)pyridin-3-yl]-6-chloropyrazine-2-carboxamide] | < 1 µM | < 1 µM | < 1 µM | 10000 to 25000 nM | 1 to 10 µM |  |  |  | < 1 µM |  | 
Nc1cccnc1C(=O)Nc1ccncc1N1CCCC(N)C1 (stereo not drawn) [Example 174, 3-amino-N-[3-(3-aminopiperidin-1-yl)pyridin-4-yl]pyridine-2-carboxamide] | < 1 µM | < 1 µM | < 1 µM | 1000 to 10000 nM | > 25 µM |  |  |  | > 10 µM |  | 
Cc1ccccc1-c1nc(C(=O)Nc2cnccc2N2CCCC(N)C2)c(N)nc1N (stereo not drawn) [Example 340, 3,5-diamino-6-o-tolyl-pyrazine-2-carboxylic acid (3-amino-3,4,5,6-tetrahydro-2H-[1,4′]bipyridinyl-3′-yl)-amide] | < 1 µM | < 1 µM | < 1 µM | 1000 to 10000 nM | 10 to 25 µM |  |  |  | 1 to 5 µM |  | 
Nc1ccc(-c2ccc(N)c(C(=O)Nc3cnccc3N3CCC[C@H](N)C3)n2)cn1 [Example 418, 5,6′-diamino-[2,3′]bipyridinyl-6-carboxylic acid ((S)-3-amino-3,4,5,6-tetrahydro-2H-[1,4′]bi-pyridinyl-3′-yl)-amide] | < 1 µM | < 1 µM | < 1 µM | 10000 to 25000 nM | > 25 µM |  |  |  | 1 to 5 µM |  | 
Nc1ncc(Br)nc1C(=O)Nc1[nH]c(=O)ncc1-c1nccs1 [Example 143, 3-amino-6-bromo-N-[2-oxo-5-(1,3-thiazol-2-yl)-2,3-dihydro-pyrimidin-4-yl]pyrazine-2-carboxamide] | < 1 µM | < 1 µM | < 1 µM | > 25000 nM |  |  |  |  | 1 to 5 µM |  | 

Now from value to compound, other results behind:

IC50 (Pim1 kinase; [2]) | IC50 (Pim2 kinase; read-out: IC50 (μM) PIM2) | IC50 (Pim3 kinase; read-out: IC50 (μM) PIM3) | IC50 [1] | IC50 (KDR kinase) | IC50 (Pim1 kinase; Pim1 ATP depletion assay, read-out: PIM1 IC50) | IC50 (Pim2 kinase; read-out: PIM2 IC50) | IC50 (Pim3 kinase; read-out: PIM3 IC50) | SMILES | EC50 (HEL 92.1.7 cells; read-out: EC50 (μM) HEL 92.1.7) | EC50 (HEL 92.1.7 cells; read-out: HEL 92.1.7 EC50) | IC50 (Pim1 kinase)
< 1 µM | < 1 µM | < 1 µM | 1000 to 10000 nM | 1 to 10 µM |  |  |  | Nc1nc(N)c(-c2ccccc2F)nc1C(=O)Nc1cnccc1N1CCCC(N)C1 (stereo not drawn) [Example 343, 3,5-diamino-6-(2-fluoro-phenyl)-pyrazine-2-carboxylic acid (3-amino-3,4,5,6-tetra-hydro-2H-[1,4′]bipyridinyl-3′-yl)-amide] | < 1 µM |  | 
< 1 µM | < 1 µM | < 1 µM | 1000 to 10000 nM | > 25 µM |  |  |  | N#Cc1ccccc1-c1ccc(N)c(C(=O)Nc2cnccc2N2CCC[C@H](N)C2)n1 [Example 332, 3-amino-6-(2-cyano-phenyl)-pyridine-2-carboxylic acid ((S)-3-amino-3,4,5,6-tetra-hydro-2H-[1,4′]bipyridinyl-3′-yl)-amide] | 1 to 5 µM |  | 
 |  |  | 1000 to 10000 nM | < 1 µM | < 1 µM | < 1 µM | < 1 µM | Nc1ncc(-c2ccccc2)nc1C(=O)Nc1[nH]c(=O)ncc1N1CCCCC1 [Example 590, 3-amino-6-phenyl-pyrazine-2-carboxylic acid (2-oxo-5-piperidin-1-yl-2,3-dihydro-pyrimidin-4-yl)-amide] |  | 1 to 5 µM | 
< 1 µM | < 1 µM | < 1 µM | < 1000 nM | 1 to 10 µM |  |  |  | Nc1nc(N)c(-c2ccccc2C(F)(F)F)nc1C(=O)Nc1cnccc1N1CCCC(N)C1 (stereo not drawn) [Example 341, 3,5-diamino-6-(2-trifluoro-methyl-phenyl)-pyrazine-2-carboxylic acid (3-amino-3,4,5,6-tetrahydro-2H-[1,4′]bi-pyridinyl-3′-yl)-amide] | 1 to 5 µM |  | 
< 1 µM | < 1 µM | < 1 µM | < 1000 nM | 1 to 10 µM |  |  |  | Nc1nccnc1C(=O)Nc1[nH]c(=O)ncc1N1CCCCC1 [Example 130, 3-amino-N-(2-oxo-5-piperidin-1-yl-2,3-dihydropyrimidin-4-yl)-pyrazine-2-carboxamide] | 5 to 10 µM |  | 
< 1 µM | < 1 µM | < 1 µM | 1000 to 10000 nM | > 25 µM |  |  |  | Nc1cc(Cl)c(-c2ccc(N)c(C(=O)Nc3cnccc3N3CCC[C@H](N)C3)n2)cn1 [Example 410, 5,6′-diamino-4′-chloro-[2,3′]bi-pyridinyl-6-carboxylic acid ((S)-3-amino-3,4,5,6-tetrahydro-2H-[1,4′]bipyridinyl-3′-yl)-amide] | 1 to 5 µM |  | 
< 1 µM | < 1 µM | < 1 µM | < 1000 nM |  |  |  |  | Nc1nccnc1C(=O)Nc1[nH]c(=O)ncc1N1CCCC(C(F)(F)F)C1 (stereo not drawn) [Example 146, 3-amino-N-{2-oxo-5-[3-(trifluoromethyl)piperidin-1-yl]-2,3-dihydropyrimidin-4-yl}-pyrazine-2-carboxamide] | > 10 µM |  | 
< 1 µM | < 1 µM | < 1 µM | < 1000 nM |  |  |  |  | NCC(=O)N1CCN(c2ccncc2NC(=O)c2nc(Br)cnc2N)CC1 [Example 179, 3-amino-N-{4-[4-(aminoacetyl)-piperazin-1-yl]pyridin-3-yl}-6-bromopyrazine-2-carboxamide] | 1 to 5 µM |  | 
